Source: patent publication US20240127967A1
Several values for one entry are separate records, joined by “and”; a condition that tells them apart may be missing. Equal entries are not always repeated. Entries after “also recorded” stand apart in the source; their conditions may differ. Where two headings read alike, the source gives them in different places.

How the values were obtained:
[1] = female, C57BL/6, mouse, in vivo; for Cmax: po
EBOV/Mak [2] = conditions: cited from earlier work
EBOV [3] = conditions: mouse, in vivo; cited from earlier work
[4] = Tolerability of drugs in V8 in mice; conditions: in V8, once daily PO, eleven consecutive days; bepridil 500, toremifene 200, sertraline 60 and 100 mg/kg
[5] = State of V8 preparations after storage at 4° C.; type: physicochemical; conditions: stored at 4° C.
[6] = Pharmacokinetic modeling of human oral PK data (Monolix); set-up: species or system humans; conditions: for V: fitted PK model parameter (volume of plasma/serum compartment); for k: fitted elimination rate
[7] = Solubility in ten test vehicles; conditions: for solubility in Vehicle #9: 3% NMP/45% PEG300/12% ethanol/40% sterile water; for solubility in Vehicle #9 / solubility in Vehicle #7 / solubility in Vehicle #6 / solubility in Vehicle #10 / solubility in Vehicle #8 / solubility in Vehicle #5 / solubility in Vehicle #4 / solubility in Vehicle #3: Bepridil 25, Sertraline 3, toremifene 8.4 mg/ml; for solubility in Vehicle #7: 5% NMP/95% PEG 300; for solubility in Vehicle #6: 10% Solutol/90% PEG 400; for solubility in Vehicle #2: 20% Captisol in water; for solubility in Vehicle #2 / solubility in Vehicle #1: Bepridil 25 mg/ml, Sertraline 3 mg/ml, toremifene 8.4 mg/ml; for solubility in Vehicle #10: 40% Propylene Glycol/30% Solutol HS 15/30% Sterile Water; for solubility in Vehicle #8: 80% PEG 400/20% of 0.1% Tween-20 in Water; for solubility in Vehicle #1: Aqueous Suspension Vehicle; for solubility in Vehicle #5: PEG 400; for solubility in Vehicle #4: Vegetable Oil; for solubility in Vehicle #3: […] PEG 400/[…] Tween 20/25% Capmul MCM NF
EBOV/Mak-005 = conditions: rhesus monkey, in vivo; cited from earlier work
EBOV [8] = conditions: read-out: IC50 (HepG2); cited from earlier work
in vivo = conditions: mouse, ip, 12 mg/kg
[9] = in vivo, cited from earlier work
VSV-EBOV-GPΔ-Luc = type: cell-based, VSV pseudovirus bearing EBOV GP
MARV = conditions: mouse, in vivo; cited from earlier work
EBOV/Mak [10] = assay: microbe, parasite or virus in culture; type: cell-based, Ebola virus; conditions: for IC50: Zaire ebolavirus
EBOV [11] = test system: EBOV; set-up: species or system mice; conditions: mouse, in vivo
[12] = Huh-7, read-out: IC50 (average)

Structure (SMILES) | Cmax [1] [nM] | Hill coefficient (EBOV/Mak [2]) | Survival (%) (EBOV [3]) | tolerability in mice [4] | state of preparation in Vehicle 8 when removed from the refrigerator [5] | V [6] | solubility in Vehicle #9 [7] | solubility in Vehicle #7 [7] | solubility in Vehicle #6 [7] | solubility in Vehicle #2 [7] | solubility in Vehicle #10 [7] | solubility in Vehicle #8 [7] | solubility in Vehicle #1 [7] | solubility in Vehicle #5 [7] | solubility in Vehicle #4 [7] | solubility in Vehicle #3 [7] | IC50 (EBOV [8]) [µM] | IC50 (EBOV/Mak [2]; read-out: IC50 (Huh7)) [µM] | peak concentration [9] | trough concentration [9] | further results
CN[C@H]1CC[C@@H](c2ccc(Cl)c(Cl)c2)c2ccccc21 [Sertraline] | ~1200 | 1.628 | 70% and 70 ^ % | well tolerated | no precipitates, not solid | 909 | Clear solution | Clear solution | Clear solution | Clear solution | Clear solution | Clear solution | Suspension | Clear solution | Clear solution | Clear solution | – | – | – | – | Cmax obtained relative to prediction, fold higher [1]: ~1.2 fold; Tlag ([6]; fitted PK model parameter): 0.0976 days; efficacy in macaques (EBOV/Mak-005): not effective; also recorded: did not protect
CC(=O)c1ccc2c(c1)N(CCCN1CCC(CCO)CC1)c1ccccc1S2 [piperacetazine, Piperacetazine] | – | – | – | – | – | – | – | – | – | – | – | – | – | – | – | – | 3.3 | 7.58 | – | – | –
CC(C)COCC(CN(Cc1ccccc1)c1ccccc1)N1CCCC1 (stereo not shown) [Bepridil] | ~3000 | 4.859 | 100% and 100 ^3% | well tolerated | always solid (as if it had frozen) and contained precipitate | 25.2 | Clear solution | Clear solution | Clear solution | Slightly hazy | Clear solution | Clear solution | Suspension | Clear solution | Clear solution | Clear solution | 3.21 | 5.86 | 3.63 (±1.48) μM | 2.60 (±1.21) μM | Cmax obtained relative to prediction, fold higher [1]: ~1.8 fold; Cmax (in vivo): 3300 nM; stability of inhibitory activity of stock in V8 (VSV-EBOV-GPΔ-Luc): maintained inhibitory activity over 15 days; IC50 (EBOV/Mak [2]; read-out: IC50): 5.86 µM; Tk0 ([6]; fitted PK model parameter): 0.0873 days; k12 ([6]; fitted PK model parameter): 6.71 per day; k21 ([6]; fitted PK model parameter): 1.61 per day; k [6]: 0.348 per day; single drug effect (Ebola virus): exceeds 80%; Survival (%) (MARV): 90 ^4%; possible loss of potency on storage in V8 (EBOV/Mak [10]): < 2 fold; IC50 (EBOV/Mak [10]; Huh-7): 4.5 µM; IC50 (EBOV/Mak [10]; [12]): 4.53 µM
CCOC(=O)c1c(CSc2ccccc2)n(C)c2cc(Br)c(O)c(CN(C)C)c12 [arbidol] | – | – | – | – | – | – | – | – | – | – | – | – | – | – | – | – | – | – | 0.77 (±0.23) μM | 0.32 (±0.09) μM | baseline efficacy (SARS-CoV-2): 36%
O=C(Nc1ncc([N+](=O)[O-])s1)c1ccccc1O [tizoxanide] | – | – | – | – | – | – | – | – | – | – | – | – | – | – | – | – | – | – | 17.34 (±13.61) | 3.02 (±7.43) | –
CN(C)CCOc1ccc(/C(=C(/CCCl)c2ccccc2)c2ccccc2)cc1 [Toremifene] | ~4400 | 3.057 | 50% and 50 ^ % | well tolerated | no precipitates, not solid | 354 | Clear solution | Clear solution | Suspension | Clear solution | Insoluble | Clear solution | Suspension | Suspension | Non- | Suspension | 0.03 | 3.64 | 1.18 (±0.42) μM | 0.29 µM | Cmax obtained relative to prediction, fold lower [1]: ~1.4 fold; stability of inhibitory activity of stock in V8 (VSV-EBOV-GPΔ-Luc): began to lose activity after about 1 week; IC50 (EBOV/Mak [2]; read-out: IC50): 3.64 µM; approximated protection of infected mice (EBOV [11]): ~50%; reasoned survival (EBOV [11]): ~7%; estimated survival (EBOV [11]; po, 200 mg/kg): ~50%; k12 ([6]; fitted PK model parameter): 4.28 per day; k21 ([6]; fitted PK model parameter): 0.992 per day; ka ([6]; fitted absorption rate): 16.6 per day; k [6]: 0.000198 per day; IC50 (EBOV/Mak [10]; [12]): 1.83 µM
O=C1CCc2ccc(OCCCCN3CCN(c4cccc(Cl)c4Cl)CC3)cc2N1 [Aripiprazole] | – | – | 10 ^1% | – | – | – | – | – | – | – | – | – | – | – | – | – | – | – | – | – | adverse effect in treated infected mice (EBOV [3]): ^1 Mice became extremely somnolent, thwarting eating and drinking, which likely contributed to low survival.
Cc1cccc(/C=N/Nc2cc(N3CCOCC3)nc(OCCc3ccccn3)n2)c1 [Apilimod] | – | – | – | – | – | – | – | – | – | – | – | – | – | – | – | – | – | 0.17 | – | – | Cmax ([9]; human, po): 260 nM
CC[C@H]1OC(=O)[C@H](C)[C@@H](O[C@H]2C[C@@](C)(OC)[C@@H](O)[C@H](C)O2)[C@H](C)[C@@H](O[C@@H]2O[C@H](C)C[C@H](N(C)C)[C@H]2O)[C@](C)(O)C[C@@H](C)CN(C)[C@H](C)[C@@H](O)[C@]1(C)O [Azithromycin] | – | – | 10, 30, 60 ^2% | – | – | – | – | – | – | – | – | – | – | – | – | – | – | 10.8 | – | – | –
CCC(CC)COC(=O)[C@H](C)N[P@](=O)(OC[C@H]1O[C@@](C#N)(c2ccc3c(N)ncnn23)[C@H](O)[C@@H]1O)Oc1ccccc1 [remdesivir] | – | – | – | – | – | – | – | – | – | – | – | – | – | – | – | – | – | – | 5.34 (±0.03) μM | – | median t1/2 [9]: ≈ 1 hour; time of peak concentration [9]: 1.03 (±0.01) hour; baseline efficacy (SARS-CoV-2): 60%
